# Data published in ChEMBL document CHEMBL1157840, “Synthesis and the selective antifungal activity of 5,6,7,8-tetrahydroimidazo[1,2-a]pyridine derivatives” (Eur J Med Chem, 2010).
# Legend:
# [1] = tested on: Candida albicans; assay: Antifungal activity against Candida albicans clinical isolate after 24 hrs by broth microdilution assay; type: functional
# [2] = tested on: Candida albicans; assay: Antifungal activity against Candida albicans ATCC 90028 after 24 hrs by broth microdilution assay; type: functional; conditions: ATCC 90028, 24 h
# [3] = tested on: Nakaseomyces glabratus; assay: Antifungal activity against Candida glabrata clinical isolate 1 after 24 hrs by broth microdilution assay; type: functional; conditions: isolate 1, 24 h
# [4] = tested on: Cyberlindnera jadinii; assay: Antifungal activity against Candida utilis NRRL Y-900 after 24 hrs by broth microdilution assay; type: functional; conditions: Williopsis jadinii, NRRL Y-900, 24 h
# [5] = tested on: Candida tropicalis; assay: Antifungal activity against Candida tropicalis NRRL Y-12968 after 24 hrs by broth microdilution assay; type: functional; conditions: NRRL Y-12968, 24 h
# [6] = tested on: Pichia kudriavzevii; assay: Antifungal activity against Candida krusei NRRL Y-7179 after 24 hrs by broth microdilution assay; type: functional; conditions: NRRL Y-7179, 24 h
# [7] = tested on: [Candida] zeylanoides; assay: Antifungal activity against Candida zeylanoides NRRL Y-1774 after 24 hrs by broth microdilution assay; type: functional; conditions: Dujonia zeylanoides, NRRL Y-1774, 24 h
# [8] = tested on: Candida parapsilosis; assay: Antifungal activity against Candida parapsilosis NRRL Y-12696 after 24 hrs by broth microdilution assay; type: functional; conditions: Lodderomyces parapsilosis, NRRL Y-12696, 24 h
# [9] = tested on: Candida albicans; assay: Antifungal activity against Candida albicans NRRL Y-12983 after 24 hrs by broth microdilution assay; type: functional; conditions: NRRL Y-12983, 24 h
# [10] = tested on: Nakaseomyces glabratus; assay: Antifungal activity against Candida glabrata clinical isolate 2 after 24 hrs by broth microdilution assay; type: functional
# [11] = tested on: SK-MEL; assay: Cytotoxicity against human SK-MEL cells up to 25 ug/ml after 48 hrs by neutral red assay; type: cell-based
# [12] = tested on: BT-549; assay: Cytotoxicity against human BT549 cells up to 25 ug/ml after 48 hrs by neutral red assay; type: cell-based; conditions: bt-549, 48 h
# [13] = tested on: SK-OV-3; assay: Cytotoxicity against human SKOV3 cells up to 25 ug/ml after 48 hrs by neutral red assay; type: cell-based; conditions: sk-ov-3, 48 h
# [14] = tested on: Vero; assay: Cytotoxicity against african green monkey Vero cells up to 25 ug/ml after 48 hrs by neutral red assay; type: cell-based; conditions: chlorocebus sabaeus
# [15] = Cytotoxicity against african pig LLC-PK11 up to 25 ug/ml after 48 hrs by neutral red assay; parameters: species or system Sus scrofa
Structure (SMILES),MIC [1] [µg/mL],MIC [2] [µg/mL],MIC [3] [µg/mL],MIC [4] [µg/mL],MIC [5] [µg/mL],MIC [6] [µg/mL],MIC [7] [µg/mL],MIC [8] [µg/mL],MIC [9] [µg/mL],MIC [10] [µg/mL],Activity [11],Activity [12],Activity [13],Activity [14],Activity [15]
CC(C)c1ccc(/C=N/NC(=O)c2cn3c(n2)CCCC3)cc1,0.125,> 0.25,> 0.25,> 0.25,0.125,> 0.25,> 0.25,> 0.25,> 0.25,0.5,Non-toxic,Non-toxic,Non-toxic,Non-toxic,Non-toxic
O=C(N/N=C/c1ccc([N+](=O)[O-])cc1)c1cn2c(n1)CCCC2,0.125,0.5,0.5,0.5,0.25,0.5,0.25,0.25,0.25,0.25,Non-toxic,Non-toxic,Non-toxic,Non-toxic,Non-toxic
CN(C)c1ccc(/C=N/NC(=O)c2cn3c(n2)CCCC3)cc1,0.125,> 0.25,> 0.25,> 0.25,0.125,> 0.25,> 0.25,> 0.25,> 0.25,> 0.25,Non-toxic,Non-toxic,Non-toxic,Non-toxic,Non-toxic
O=C(N/N=C/c1ccc(Br)cc1)c1cn2c(n1)CCCC2,1,0.5,0.5,1,0.5,0.25,1,1,0.125,0.25,Non-toxic,Non-toxic,Non-toxic,Non-toxic,Non-toxic
O=C(N/N=C/c1ccc2c(c1)OCO2)c1cn2c(n1)CCCC2,0.063,> 0.25,> 0.25,0.125,0.125,> 0.25,> 0.25,> 0.25,> 0.25,> 0.25,Non-toxic,Non-toxic,Non-toxic,Non-toxic,Non-toxic
Clc1ccccc1C(c1ccccc1)(c1ccccc1)n1ccnc1 [CLOTRIMAZOLE],< 0.08,< 0.08,< 0.08,< 0.08,0.032,< 0.08,0.125,< 0.08,< 0.08,< 0.08,Non-toxic,Non-toxic,Non-toxic,Non-toxic,Non-toxic
CC(=O)N1CCN(c2ccc(OCC3COC(Cn4ccnc4)(c4ccc(Cl)cc4Cl)O3)cc2)CC1 (stereo not drawn) [KETOCONAZOLE],0.063,0.063,0.125,0.125,0.125,0.125,0.5,0.032,0.032,0.032,Non-toxic,Non-toxic,Non-toxic,Non-toxic,Non-toxic

# Now from value to compound, other results behind:
MIC [1] [µg/mL],MIC [2] [µg/mL],MIC [3] [µg/mL],MIC [4] [µg/mL],MIC [5] [µg/mL],MIC [6] [µg/mL],MIC [7] [µg/mL],MIC [8] [µg/mL],MIC [9] [µg/mL],MIC [10] [µg/mL],Structure (SMILES),Activity [11],Activity [12],Activity [13],Activity [14],Activity [15]
0.032,> 0.25,> 0.25,> 0.25,0.125,> 0.25,> 0.25,0.5,> 0.25,> 0.25,Cc1ccc(/C=N/NC(=O)c2cn3c(n2)CCCC3)cc1,Non-toxic,Non-toxic,Non-toxic,Non-toxic,Non-toxic
0.125,0.5,> 0.25,> 0.25,> 0.25,> 0.25,> 0.25,0.5,0.5,0.125,O=C(N/N=C/c1ccc(Cl)cc1)c1cn2c(n1)CCCC2,Non-toxic,Non-toxic,Non-toxic,Non-toxic,Non-toxic
0.032,0.063,0.032,0.032,< 0.016,< 0.016,0.032,0.032,0.032,0.032,N#Cc1ccc(/C=N/NC(=O)c2cn3c(n2)CCCC3)cc1,Non-toxic,Non-toxic,Non-toxic,Non-toxic,Non-toxic
0.25,,0.25,0.5,0.125,0.25,0.5,0.5,,0.125,COC1=CC(=O)C[C@@H](C)[C@]12Oc1c(Cl)c(OC)cc(OC)c1C2=O [GRISEOFULVIN],Non-toxic,Non-toxic,Non-toxic,Non-toxic,Non-toxic
